Converted amounts (≈) assume the structure as drawn.
Experiments:
HepG2 cell line = experiment: MTT assay, cell viability against HepG2; assay type: cell-based; settings: Homo sapiens; for inhibition at 3.125 µg/mL / inhibition at 6.25 µg/mL / inhibition at 12.5 µg/mL / inhibition at 25 µg/mL / inhibition at 50 µg/mL / inhibition at 100 µg/mL / inhibition at 200 µg/mL: HepG2; for IC50: HepG2, MTT, 48 h
Method: The anti-hepatocellular activity of afforded N-arylated 1,2,4-triazole coupled acetamides (7a–f) was evaluated via MTT assay and these structural hybrids were screened against a liver cancer HepG2 cell line.
The cell viability of all of the compounds was further evaluated using various concentrations ([…]) to test the dose response and % inhibition relationship as shown in Table 2.
Human HepG2 liver cancer cell lines were cultured by Dulbecco’s modified Eagle’s medium. It is composed of 100 μg/mL streptomycin, 100 units/mL penicillin, and 10% FBS. A humidified atmosphere was provided for incubation at 37 °C with 5% CO2. The anti-hepatocellular therapeutic potential of triazole-based scaffolds was evaluated by dissolving its different concentrations in 0.05% DMSO.
An MTT assay was applied for evaluation of cell viability against the HepG2 cell line. In short, different concentrations of new triazole-based scaffolds were incubated with HepG2 cell lines for 48 h. After incubation, 5 mg/mL of 10 µL MTT solution was added in each plate and they were further incubated at 37 °C for 4 h. The percentage of cell viability was calculated at 490 nm after the addition of 150 μL DMSO into a microplate reader (Thermo Scientific, Waltham, MA, USA).

[1] = Hemolytic activity, Triton-X-100 as standard; settings: relative to Triton-X-100
Text: Hemolytic activity was investigated by the reported method using Triton-X-100 as a standard. Molecule 7f also presented very low toxicity at 1.19 ± 0.02 relative to reference Triton-X-100. All of the other compounds had moderately good hemolytic activity.
Hemolytic activity was investigated by the reported method using Triton-X-100 as standard.

[2] = no reference given; cited from earlier work

Molecule | melting point | IC50 (HepG2 cell line) | inhibition at 3.125 µg/mL (HepG2 cell line) | inhibition at 6.25 µg/mL (HepG2 cell line) | inhibition at 12.5 µg/mL (HepG2 cell line) | inhibition at 25 µg/mL (HepG2 cell line) | inhibition at 50 µg/mL (HepG2 cell line) | inhibition at 100 µg/mL (HepG2 cell line) | inhibition at 200 µg/mL (HepG2 cell line) | Hemolytic Activity (Mean% ± S.D) [1] | Hemolytic Activity (Mean% ± S.D) ([1]; listed as Triton X100) | bioavailability [2]
CC(C)Cc1ccc(C(C)c2nnc(SCC(=O)Nc3ccccc3)n2C)cc1 (stereo not shown) [Compound 7e, N-(Phenyl)-2-((5-(1-(4-Isobutylphenyl)Ethyl)-4-Methyl-4H-1,2,4-Triazol-3-yl)Thio)Acetamide] | 88 to 90 °C | 39.1 µg/mL (≈ 95.7 µM) | 18.6 ± 0.5% | 20.5 ± 7.11% | 21 ± 3.13% | 24 ± 6.12% | 74.2 ± 13.2% | 87.3 ± 2.09% | 88 ± 1.44% | – | – | –
CCc1ccc(NC(=O)CSc2nnc(C(C)c3ccc(CC(C)C)cc3)n2C)cc1 (stereo not shown) [Compound 7c, N-(4-Ethylphenyl)-2-((5-(1-(4-Isobutylphenyl)Ethyl)-4-Methyl-4H-1,2,4-Triazol-3-yl)Thio)Acetamide] | 100 to 102 °C | 39 µg/mL (≈ 89.3 µM) | 15.4 ± 2.01% | 17.4 ± 1.32% | 19.1 ± 1.25% | 22.8 ± 0.29% | 73.7 ± 15.5% | 78.8 ± 10.8% | 87.51 ± 0.2% | – | – | –
Triton-X-100 [reference compound] | – | – | – | – | – | – | – | – | – | 100 ± 0.0% | 100% | –
CNC(=O)c1cc(Oc2ccc(NC(=O)Nc3ccc(Cl)c(C(F)(F)F)c3)cc2)ccn1 [Sorafenib, reference compound] | – | 5.97 µg/mL (≈ 12.8 µM) | – | – | – | – | – | – | – | – | – | 38–49%

More lines, main results first:

melting point | IC50 (HepG2 cell line) | Molecule | inhibition at 3.125 µg/mL (HepG2 cell line) | inhibition at 6.25 µg/mL (HepG2 cell line) | inhibition at 12.5 µg/mL (HepG2 cell line) | inhibition at 25 µg/mL (HepG2 cell line) | inhibition at 50 µg/mL (HepG2 cell line) | inhibition at 100 µg/mL (HepG2 cell line) | inhibition at 200 µg/mL (HepG2 cell line) | Hemolytic Activity (Mean% ± S.D) [1] | Hemolytic Activity (Mean% ± S.D) ([1]; listed as Triton X100) | bioavailability [2]
150 to 152 °C | 16.8 µg/mL (≈ 38.4 µM) | Cc1cccc(C)c1NC(=O)CSc1nnc(C(C)c2ccc(CC(C)C)cc2)n1C (stereo not shown) [Compound 7f, N-(2,6-Dimethylphenyl)-2-((5-(1-(4-Isobutylphenyl)Ethyl)-4-Methyl-4H-1,2,4-Triazol-3-yl)Thio)Acetamide] | 8.4 ± 4.54% | 19.6 ± 4.07% | 34 ± 2.47% | 85.9 ± 0.3% | 86.57 ± 0.56% | 87.7 ± 1.34% | 88.36 ± 0.31% | – | – | –
122 to 124 °C | 33.6 µg/mL (≈ 66.9 µM) | Cc1cc(Br)ccc1NC(=O)CSc1nnc(C(C)c2ccc(CC(C)C)cc2)n1C (stereo not shown) [Compound 7b, N-(4-Bromo-2-Mthylphenyl)-2-((5-(1-(4-Isobutylphenyl)Ethyl)-4-Methyl-4H-1,2,4-Triazol-3-yl)Thio)Acetamide] | 10.3% | 24.8 ± 4.62% | 25.2 ± 4.67% | 31.9 ± 0.3% | 88.6 ± 1.11% | 89.4 ± 0.91% | 89.5 ± 0.06% | – | – | –
122 to 124 °C | 20.7 µg/mL (≈ 48.9 µM) | Cc1ccccc1NC(=O)CSc1nnc(C(C)c2ccc(CC(C)C)cc2)n1C (stereo not shown) [Compound 7a, N-(2-Methylphenyl)-2-((5-(1-(4-isobutylphenyl)ethyl)-4-methyl-4H-1,2,4-triazol-3-yl)thio)Acetamide] | 11.6% | 21.4 ± 6.24% | 27.7 ± 6.46% | 64 ± 1.67% | 75.2 ± 5.99% | 88.17 ± 0.26% | 89.4 ± 0.34% | – | – | –
123 to 125 °C | 39.7 µg/mL (≈ 89.5 µM) | CC(C)Cc1ccc(C(C)c2nnc(SCC(=O)Nc3ccccc3Cl)n2C)cc1 (stereo not shown) [Compound 7d, N-(2-Chlorophenyl)-2-((5-(1-(4-Isobutylphenyl)Ethyl)-4-Methyl-4H-1,2,4-Triazol-3-yl)Thio)Acetamide] | 14.3 ± 4.27% | 17.3 ± 1.4% | 19.1 ± 17.7% | 19.5 ± 1.44% | 76.7 ± 5.63% | 78.33 ± 0.78% | 87.7 ± 0.18% | – | – | –
